“And” between values parts separate entries of the source, which are not always exact repeats. Identical values can stand only once.
How the values were obtained:
[1] = biological target: T1, Heme oxygenase 2 (Rattus norvegicus, UniProt P23711); test: Heme Oxygenase; conditions: pH 7.4; 25 °C
T1 sequence (P23711 whole entry): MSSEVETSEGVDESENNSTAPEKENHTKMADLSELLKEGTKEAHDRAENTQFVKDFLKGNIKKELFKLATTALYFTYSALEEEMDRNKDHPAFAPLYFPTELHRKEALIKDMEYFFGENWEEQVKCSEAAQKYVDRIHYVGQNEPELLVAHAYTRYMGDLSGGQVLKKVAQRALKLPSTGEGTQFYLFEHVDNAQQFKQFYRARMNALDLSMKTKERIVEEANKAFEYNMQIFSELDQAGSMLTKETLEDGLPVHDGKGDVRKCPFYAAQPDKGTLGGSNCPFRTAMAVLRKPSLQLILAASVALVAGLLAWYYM
Procedure: (§1) Heme oxygenase activity in rat spleen and brain microsomal fractions was determined by the quantitation of CO formed from the degradation of methemalbumin (heme complexed with albumin). Spleen and brain (SpragueâDawley rats) microsomal fractions were prepared according to the procedure outlined by Appletonet al. Protein concentration of microsomal fractions was determined by a modification of the Biuret method. Incubations for HO activity analysis were performed under conditions for which the rate of CO formation [pmol CO â (min mg protein)] was linear with respect to time and microsomal protein concentration. […] […]

[2] = biological target: T2, Heme oxygenase 1 (Rattus norvegicus, UniProt P06762); test: Heme Oxygenase; conditions: pH 7.4; 25 °C
T2 sequence (P06762 whole entry): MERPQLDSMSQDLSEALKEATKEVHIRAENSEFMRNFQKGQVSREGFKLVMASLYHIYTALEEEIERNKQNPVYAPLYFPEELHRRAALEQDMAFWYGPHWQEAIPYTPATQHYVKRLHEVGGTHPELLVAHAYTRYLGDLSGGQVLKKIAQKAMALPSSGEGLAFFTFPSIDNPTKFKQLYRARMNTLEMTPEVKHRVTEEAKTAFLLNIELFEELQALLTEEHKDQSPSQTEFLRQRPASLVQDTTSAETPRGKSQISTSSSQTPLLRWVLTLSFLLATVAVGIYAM
Procedure: as §1

## O=C(CCc1ccccc1)Cn1ccnc1-c1ccccc1 [1-azolyl-4-phenyl-2-butanone, 16]
[1]
  IC50: > 100 µM
[2]
  IC50: > 100 µM

## CSc1nnnn1CC(=O)CCc1ccccc1 [1-azolyl-4-phenyl-2-butanone, 38]
[1]
  IC50: > 100 µM
[2]
  IC50: > 100 µM

## O=C(CCc1ccccc1)Cn1cnc(N(O)O)n1 [1-azolyl-4-phenyl-2-butanone, 32]
[1]
  IC50: > 100 µM
[2]
  IC50: > 100 µM

## O=C(CCc1ccccc1)Cn1nccn1 [1-azolyl-4-phenyl-2-butanone, 9]
[1]
  IC50: > 100 µM
[2]
  IC50: > 100 µM

## O=C(CCc1ccccc1)Cn1cnc(Cl)c1Cl [1-azolyl-4-phenyl-2-butanone, 20]
[1]
  IC50: > 100 µM
[2]
  IC50: > 100 µM

## O=C(CCc1ccccc1)Cn1nnnc1-c1ccccc1 [1-azolyl-4-phenyl-2-butanone, 40]
[1]
  IC50: > 100 µM
[2]
  IC50: > 100 µM

## CSc1nnn(CC(=O)CCc2ccccc2)n1 [1-azolyl-4-phenyl-2-butanone, 41]
[1]
  IC50: > 100 µM
[2]
  IC50: > 100 µM

## O=C(CCc1ccccc1)Cn1nc(Br)nc1Br [1-azolyl-4-phenyl-2-butanone, 36]
[1]
  IC50: > 100 µM
[2]
  IC50: > 100 µM

## O=C(CCc1ccccc1)Cn1ncnn1 [1-azolyl-4-phenyl-2-butanone, 11]
[1]
  IC50: 30 µM and > 100 µM

## Cc1nccn1CC(=O)CCc1ccccc1 [1-azolyl-4-phenyl-2-butanone, 15]
[1]
  IC50: > 100 µM
[2]
  IC50: > 100 µM

## O=C(CCc1ccccc1)Cn1cnc(-c2ccccc2)c1-c1ccccc1 [1-azolyl-4-phenyl-2-butanone, 21]
[1]
  IC50: > 100 µM

## O=C(CCc1ccccc1)Cn1cnc(N(O)O)c1 [1-azolyl-4-phenyl-2-butanone, 26]
[1]
  IC50: > 100 µM
[2]
  IC50: > 100 µM

## O=C(CCc1ccccc1)Cn1ccnn1 [1-azolyl-4-phenyl-2-butanone, 8]
[1]
  IC50: > 100 µM
[2]
  IC50: 89 µM

## O=C(CCc1ccccc1)Cn1cnc(-c2ccccc2)c1 [1-azolyl-4-phenyl-2-butanone, 24]
[1]
  IC50: > 100 µM

## CSc1ncn(CC(=O)CCc2ccccc2)n1 [1-azolyl-4-phenyl-2-butanone, 31]
[1]
  IC50: > 100 µM
[2]
  IC50: > 100 µM

## COOSc1ncnn1CC(=O)CCc1ccccc1 [1-azolyl-4-phenyl-2-butanone, 46]
[1]
  IC50: > 100 µM
[2]
  IC50: > 100 µM

## O=C(CCc1ccccc1)Cn1nc2ccccc2n1 [1-azolyl-4-phenyl-2-butanone, 14]
[1]
  IC50: > 100 µM
[2]
  IC50: > 100 µM

## O=C(CCc1ccccc1)Cn1cnc(Br)c1 [1-azolyl-4-phenyl-2-butanone, 25]
[1]
  IC50: > 100 µM
[2]
  IC50: > 100 µM

## OC(CCc1ccccc1)Cn1ccnc1 (stereo not drawn)
[2]
  IC50: 6 µM

## CSc1ncnn1CC(=O)CCc1ccccc1 [1-azolyl-4-phenyl-2-butanone, 35]
[1]
  IC50: > 100 µM
[2]
  IC50: > 100 µM

## O=C(CCc1ccccc1)Cn1cccn1 [1-azolyl-4-phenyl-2-butanone, 5]
[1]
  IC50: > 100 µM
[2]
  IC50: > 100 µM
